The record followed here is publication PMC10685318, “Trans-cyclosulfamidate mannose-configured cyclitol allows isoform-dependent inhibition of GH47 α-D-mannosidases through a bump–hole strategy” (Chemical Science, 2023).

Test [1] deals with T1, BtMan2A (Bacteroides thetaiotaomicron, UniProt Q8AAK6).
T1 construct: made in house; donated by Dr. W. Offen, University of York
Kind of test: 4-MU activity assay for bacterial GH2 β-mannosidase, purified enzyme. The format is biochemical. On the procedure:
(§1) Trans-Cyclosulfamidate Cyclitols Males et al.
2.3 GH38 α-mannosidases and GH2 β-mannosidase inhibition studies
All chemicals were of analytical grade and purchased from Sigma-Aldrich unless stated otherwise.
Optimal stability of cell homogenates and enzyme working stocks was ensured by preparation and temporary storage on ice. Cell homogenates were prepared and used on the same day. Protein concentrations were quantified using the Pierce BCA Protein Assay Kit (ThermoFisher). Protein samples were measured in clear flat-bottom polystyrene 96 well microplates (Greiner Bio-One) using a EMax Plus Microplate Reader (Molecular Devices). Activity measurements of human GH38 α-mannosidases and bacterial β-mannosidase BtMan2A were performed in black flat-bottom polystyrene 96 wells microplates (Greiner Bio-One) and total fluorescence was measured using a Perkin Elmer LS-55 fluorescence spectrometer at wavelengths λex = 366 and λem = 445 nm, with the signal optimized for medium gain readings. The fluorescence values of each enzyme sample were corrected for the background signal of a blank sample containing no enzyme. In the case of IC50 determinations, values were normalized against a control sample containing enzyme without added inhibitor. […]

Test [2] has as its target T2, CkGH47 L310S (Caulobacter sp. K31, UniProt B0SWV2, L310S).
T2 sequence (B0SWV2 25-462 L310S): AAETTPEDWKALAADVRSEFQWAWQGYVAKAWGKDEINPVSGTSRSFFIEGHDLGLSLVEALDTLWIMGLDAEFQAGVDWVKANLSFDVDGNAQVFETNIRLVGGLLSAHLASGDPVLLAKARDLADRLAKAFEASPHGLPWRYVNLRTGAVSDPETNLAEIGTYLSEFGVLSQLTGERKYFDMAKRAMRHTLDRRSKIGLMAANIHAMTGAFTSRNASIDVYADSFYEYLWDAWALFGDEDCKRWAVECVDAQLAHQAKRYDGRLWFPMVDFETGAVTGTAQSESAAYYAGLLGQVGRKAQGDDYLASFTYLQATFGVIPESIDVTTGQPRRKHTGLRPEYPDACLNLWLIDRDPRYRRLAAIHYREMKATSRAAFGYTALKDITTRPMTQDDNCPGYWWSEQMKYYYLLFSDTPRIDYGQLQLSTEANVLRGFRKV
Put plainly: Inhibition constant (V0/Vi vs inhibitor, mannose detection kit) with the CkGH47 L310S mutant. The format is biochemical, Caulobacter K31 strain. Here is the method: Building on this kinetic assay, we obtained an inhibition constant by pre-incubation of the enzyme and 6 for 30 minutes and then following the same time-point procedure as for the Michaelis–Menten assay. […] Similarly, a dissociation constant of 970 nM was obtained using isothermal titration calorimetry (Fig. S6 ^†). To understand the interactions between 6 and CkGH47 L310S regarding the introduced hole, a crystal structure complex was obtained (statistics in Table S2 ^†). Trans-cyclic sulfamidate 6 binds similarly to other conformationally restricted GH47 inhibitors, with additional interactions between the sulfamidate and active site residues, for example, the nitrogen and oxygen, and D249 and R363 side chains. Additionally, the introduced serine residue is indeed now in a position to hydrogen bond to the oxygen of the sulfamidate with a distance of 3.1 Å.
as §1
2.1 Biochemical and biological methods
To obtain Michaelis-Menten kinetics
Lastly, to achieve an inhibition constant, the
The gradient of the graph, V0/Vi
After taking each time point, the sample was heat denatured at 95 °C for 5 minutes. The reactions were conducted in triplicate and averaged. […]
microplate spectrophotometer (BioTek). The mannose detection kit (Megazyme) was used to detect […]
dehydrogenase, was monitored at 340 nm. The absorbance after hexokinase was added to the mixture […]

Where only a bound is given, the exact number is not on record here.

T1 sequence (Q8AAK6 entry or part of it, change not shown): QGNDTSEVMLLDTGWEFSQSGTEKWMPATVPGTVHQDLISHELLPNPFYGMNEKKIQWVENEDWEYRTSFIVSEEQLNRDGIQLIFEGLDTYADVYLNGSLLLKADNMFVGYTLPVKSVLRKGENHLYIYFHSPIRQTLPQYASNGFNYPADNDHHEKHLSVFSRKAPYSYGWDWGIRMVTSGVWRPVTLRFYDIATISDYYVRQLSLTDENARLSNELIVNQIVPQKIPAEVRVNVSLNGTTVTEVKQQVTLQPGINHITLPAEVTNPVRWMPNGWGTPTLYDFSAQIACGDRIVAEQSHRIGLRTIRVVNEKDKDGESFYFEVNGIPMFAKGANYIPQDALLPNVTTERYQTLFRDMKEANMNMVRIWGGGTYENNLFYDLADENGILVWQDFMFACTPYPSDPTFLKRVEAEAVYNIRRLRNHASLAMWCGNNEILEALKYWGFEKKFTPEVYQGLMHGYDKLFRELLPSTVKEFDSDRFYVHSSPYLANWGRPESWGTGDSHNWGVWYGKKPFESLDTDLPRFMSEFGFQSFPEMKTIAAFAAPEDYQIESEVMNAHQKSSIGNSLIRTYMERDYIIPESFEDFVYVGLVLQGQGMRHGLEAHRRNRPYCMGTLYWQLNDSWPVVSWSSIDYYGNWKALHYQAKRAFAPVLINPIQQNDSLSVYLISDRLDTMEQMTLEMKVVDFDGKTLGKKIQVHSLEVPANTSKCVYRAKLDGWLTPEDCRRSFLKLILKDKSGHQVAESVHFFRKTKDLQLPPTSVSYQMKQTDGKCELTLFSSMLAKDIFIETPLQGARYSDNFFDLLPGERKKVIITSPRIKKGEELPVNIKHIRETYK

As a reminder, the IC50 is the concentration that gives 50% inhibition. A lower IC50 goes with inhibition by little substance. Broadly, the Ki is the dissociation constant of the complex between target and ligand, obtained from inhibition or displacement. Regarding `O=S1(=O)N[C@@H]2[C@@H](O)[C@@H](O)[C@H](O)[C@@H](CO)[C@H]2O1` [compound 6, 1,6-trans-manno-cyclosulfamidate], the IC50 in test [1] is over 1000 µM. This compound also returned a Ki in test [2] of 0.574 µM.
